According to patent US20240408005A1, “USE OF CALCIUM SENSING RECEPTOR ANTAGONISTS FOR TREATING OCULAR DISORDERS” (The Regents of the University of California, priority 2023, published 2024):

What was measured:
[1] = Tear fluid volume by endodontic absorbent paper point tear test (EAPPTT); format: in vivo, BALB/c mice; settings: for EAPPTT wetting length: 0.001% single 10 μL dose, baseline 2.3±0.2 mm
Protocol: […] All mice were kept at ambient conditions (approximately 50% humidity and 21° C.) and provided unrestricted access to food and water.

CFTR = test: Ocular surface potential difference (OSPD), forskolin / CFTRinh-172 responses; format: in vivo, mouse
Source text: (§1) Using pharmacological activators and inhibitors, OSPD allows studying activities of various ion channels/transporters in the ocular surface.^12 In these studies, baseline OSPD is established using a high Cl^− solution that mimics the tear film. OSPD changes induced by amiloride (ENaC inhibitor) indicates Na^+ transport via ENaC. Similarly, OSPD changes induced by forskolin (cAMP agonist) and CFTRinh-172 (CFTR inhibitor) indicates Cl^− secretion via cAMP-activated Cl^− channels and particularly CFTR. Lastly, OSPD changes induced by Ca^2+ agonist ATP indicates Cl^− secretion mediated by CaCCs.
Sequential perfusion of the ocular surface with solutions containing amiloride (ENaC inhibitor), forskolin (cAMP agonist), CFTRinh-172 (CFTR inhibitor), and ATP (Ca^2+ agonist) thus allows determining activities of ENaC, CFTR, and CaCC ion channels, respectively (FIG. 4A).
The compositions of perfusion solutions follow the solutions used in the standardized human nasal and ocular potential difference protocol.^12,13 Solutions #1-3 (high Cl^−, amiloride, and low Cl^−, respectively) were made in 1-liter batches, pH balanced to 7.4, and filtered in a sterile environment prior to refrigeration and used within 3 months. Solution #1 (high Cl^−) contained 1 L Ringer's injection (containing 147 mM NaCl, 2 mM CaCl2), 4 mM KCl, 2.4 mM K2HPO4, 0.4 mM KH2PO4, and 1.2 mM MgCl2. 100 μM amiloride was added to Solution #1 to create Solution #2 (amiloride). Solution #3 (low Cl^−) was identical to Solution #1, except NaCl was replaced with sodium gluconate. Cinacalcet (CaSR agonist) and NPS-2143 (CaSR antagonist) were purchased from Tocris Bioscience (Minneapolis, MN, USA). All other chemicals were purchased from Sigma-Aldrich (St. Louis, MO, USA).
Ocular surface potential difference (OSPD) and tear fluid volume measurements were performed in mice with topically applied cinacalcet (CaSR activator) and NPS-2143 (CaSR inhibitor). Mice were anesthetized with isoflurane and body temperature was maintained at 37° C. via a heating pad. As described previously,^12,14,15 open-circuit transepithelial potential differences were measured in response to serial perfusions of different isoosmolar (310 mOsm/kg H2O) solutions over the ocular surface at 5-10 ml/min. The measuring electrode was in contact with the perfusion catheter which was carefully positioned using a three-axis micromanipulator directly above the mouse ocular surface and the reference electrode was grounded via a 23-gauge butterfly needle agar bridge inserted subcutaneously in the back. Measuring and reference electrodes consisted of Ag/AgCl with 3 M KCl agar bridges, and both electrodes were connected to an ISO-Z headstage, BMA-200 high-impedance amplifier/voltmeter, and PowerLab analog-to-digital converter (ADInstruments; Colorado Springs, CO, USA) connected to a computer (FIG. 1). Each solution was perfused onto the ocular surface using a gravity perfusion system (ALA Scientific; Farmingdale, NY, USA) for 1-3 minutes until a stable OSPD reading was obtained.

CaCC = test: Ocular surface potential difference (OSPD), ATP-induced hyperpolarization; format: in vivo, mouse
Source text: as §1, with “CaCCs. […]” for “CaCCs.”
(§2) Ocular surface potential difference (OSPD) and tear fluid volume measurements were performed in mice with topically applied cinacalcet (CaSR activator) and NPS-2143 (CaSR inhibitor). […] As described previously,^12,14,15 open-circuit transepithelial potential differences were measured in response to serial perfusions of different isoosmolar (310 mOsm/kg H2O) solutions over the ocular surface at 5-10 ml/min. […] Each solution was perfused onto the ocular surface using a gravity perfusion system (ALA Scientific; Farmingdale, NY, USA) for 1-3 minutes until a stable OSPD reading was obtained.

ENaC = test: Ocular surface potential difference (OSPD), amiloride-induced depolarization; format: in vivo, mouse; settings: topical, 100 μM amiloride, 0-30 μM cinacalcet in all solutions
Source text: as §1, with “CaCCs. […]” for “CaCCs.”
as §2

mouse ocular surface = test: Baseline ocular surface potential difference (OSPD); format: in vivo; settings: topically administered, mice
Source text: as §1, with “CaCCs. […]” for “CaCCs.”
as §2

[2] = in vivo; cited from earlier work

For `CC(C)(Cc1ccc2ccccc2c1)NC[C@@H](O)COc1cccc(Cl)c1C#N` [NPS-2143, 2-chloro-6-[(2R)-3-([1,1-dimethyl-2-(2-naphthalenyl)ethyl]amino)-2-hydroxypropoxy]benzonitrile], the “increased tear fluid volume” value ([1]; 0.001% or 30 μM, single 10 μL dose, 15 minutes after treatment) was 60%, the EAPPTT wetting length ([1]; 15 minutes after administration, mean±SEM) was 3.6±0.2 mm and the EAPPTT wetting length ([1]; 8 hours after administration) was 3.6±0.2 mm. The “reversibility of effect on tear volume” value ([1]; 24 h after treatment) was “return of tear volume to near baseline values”, the “increase of tear fluid volume” value ([1]; single dose topical 0.001% or 30 μM, for at least eight hours) was greater than 60% and the “reversal of response by CFTR inhibitor CFTRinh-172” value (CFTR; 30 μM, 10 μM CFTRinh-172) was “partially reversed”. For the same molecule, the “hyperpolarization relative to subsequently applied maximal forskolin-induced hyperpolarization” value (CFTR; 30 μM, 10 μM forskolin) was 70% and the “hyperpolarization (OSPD change)” value (CFTR; perfusion of ocular surface with 30 μM) was −13 mV.
With `C[C@@H](NCCCc1cccc(C(F)(F)F)c1)c1cccc2ccccc12` [cinacalcet] the “inhibition of ATP response” value (CaCC; 30 μM cinacalcet, 100 μM ATP, without prior forskolin and CFTRinh-172, FIG. 5) was roughly 50%, the “lower ATP-induced hyperpolarization (CaCC activity)” value (CaCC; 100 μM ATP added after forskolin and CFTRinh-172, FIG. 4F) was 90% and the “effect on ENaC activity / Na+ absorption mediated by ENaC (amiloride-induced depolarization)” value (ENaC) was “no effect”. The “effect on baseline OSPD” value (mouse ocular surface) was “no effect”, the “lower CFTRinh-172 response (CFTR activity)” value (CFTR; at 30 μM, 10 μM CFTRinh-172, FIG. 4E) was “up to 90%” and the “lower forskolin response (CFTR activity)” value (CFTR; at 30 μM, 10 μM forskolin, FIG. 4D) was “up to 90%”. The “inhibition of forskolin-induced Cl− secretion and CFTR activity” value (CFTR; at 30 μM, concentration-dependent, topical, mice) was “up to 90%”.
In the case of `O=c1ccn([C@@H]2O[C@H](COP(=O)(O)OP(=O)(O)OP(=O)(O)OP(=O)(O)OC[C@H]3O[C@@H](n4ccc(=O)[nH]c4=O)[C@H](O)[C@@H]3O)[C@@H](O)[C@H]2O)c(=O)[nH]1` [diquafosol], the “outcome of clinical trials for DED” value [2] is listed as “did not meet the primary endpoints”.
